Experimental data from US11964973B2 (priority 2019, dated 2024).
Read-outs that look alike come from different tables or passages of the source.

Key:
[1] = system: human venous whole blood, CD8 positive population (pERK); test: DGK human whole blood pERK assay; assay type: cell-based; settings: for IC50: read-out: DGK HWB pERK IC50
Method in brief: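 Read-out is the pERK-positive fraction of CD8+ cells measured by flow cytometry. Donor venous blood (heparin) saw compound for one hour at 37° C before a 15-minute anti-CD3 challenge (1 μg/mL final) with cross-linking anti-mouse IgG.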

[2] = system: Human venous whole blood (IFN-γ); test: Human whole blood IFN-γ assay; assay type: cell-based
Experimental: Assay 10: Human Whole Blood IFN-γ Assay
Human venous whole blood (22.5 μL per well), obtained from healthy donors, was pre-treated with compounds for one hour at 37° C. in a humidified 95% air/5% CO2 incubator. The blood was stimulated with 2.5 μL anti-human CD3 and anti-CD28 mAb at a final concentration of 1 μg/mL each for 24 hours at 37° C. IFN-γ in the supernatants was measured using AlphLISA kit (Cat #AL217).

[3] = human whole blood, CD8 positive population
[4] = Homo sapiens, 24 h, human whole blood, anti-CD3 plus anti-CD28, 24 hours, read-out: INFg Whole Blood Normalized Agonist EC50
[5] = Homo sapiens, CD8 positive, human whole blood pERK, read-out: DGK HWB
[6] = Homo sapiens, human whole blood IFN-γ, read-out: INFg Whole Blood
[7] = human whole blood, anti-CD3 plus anti-CD28, 24 hours, read-out: INFg Whole Blood Normalized Agonist EC50
[8] = human whole blood IFN-γ, read-out: INFg Whole Blood
[9] = human whole blood pERK, read-out: DGK HWB
[10] = read-out: DGK HWB, human whole blood pERK

In the case of `C[C@@H]1CN(c2cc(=O)n(C)c3ccc(C#N)nc23)CC[C@H]1Oc1ccc(C(F)(F)F)cc1` (racemic) [Example 97, 5-methyl-8-((3R,4R)-3-methyl-4-(4-(trifluoromethyl)phenoxy)piperidin-1-yl)-6-oxo-5,6-dihydro-1,5-naphthyridine-2-carbonitrile], the IC50 [1, 3] is reported as 3 µM and the EC50 [2, 4] is reported as 1.9 µM.

`C[C@@H]1CN(c2cc(=O)n(C)c3ccc(C#N)nc23)CC[C@H]1Oc1ccc(F)c(F)c1` (racemic) [Example 103, 8-((3R,4R)-4-(3,4-difluorophenoxy)-3-methylpiperidin-1-yl)-5-methyl-6-oxo-5,6-dihydro-1,5-naphthyridine-2-carbonitrile] gave an IC50 [1, 3] of 5.5 µM and an EC50 [2, 4] of 1.5 µM.

`C[C@@H]1CN(c2cc(=O)n(C)c3ccc(C#N)nc23)CC[C@@H]1Oc1ccc(C(C)(C)C)cc1` (racemic) [Example 175, 8-((3R,4S)-4-(4-(tert-butyl)phenoxy)-3-methylpiperidin-1-yl)-5-methyl-6-oxo-5,6-dihydro-1,5-naphthyridine-2-carbonitrile] gave an IC50 [1, 3] of 0.8 µM and an EC50 [2, 4] of 1.4 µM.

Work on `CC(C)Oc1ccc(O[C@H]2CCN(c3cc(=O)n(C)c4ccc(C#N)nc34)C[C@H]2C)nc1` (racemic) [Example 228, (+/−) 8-(cis-4-((5-isopropoxypyridin-2-yl)oxy)-3-methylpiperidin-1-yl)-5-methyl-6-oxo-5,6-dihydro-1,5-naphthyridine-2-carbonitrile] yielded an EC50 [1, 5] of 1.5 µM and an EC50 [2, 6] of 1.1 µM.

`C[C@@H]1CN(c2cc(=O)n(C)c3ccc(C#N)nc23)CC[C@H]1Oc1ccc(F)c(F)c1` (single isomer, unassigned) [Example 104] showed an IC50 [1, 3] of 1.1 µM and an EC50 [2, 4] of 1.8 µM.

Molecule `CC[C@@H]1CN(c2cc(=O)n(C)c3ccc(C#N)nc23)CC[C@H]1Oc1ccc(C(C)C)cc1` (single isomer, unassigned) [Example 144] has an IC50 [1, 3] of 0.88 µM and an EC50 [2, 7] of 0.8 µM.

`CC[C@@H]1CN(c2cc(=O)n(C)c3ccc(C#N)nc23)CC[C@H]1Oc1ccc(C(F)(F)F)cc1` (single isomer, unassigned) [Example 147] gave an IC50 [1, 3] of 0.61 µM and an EC50 [2, 7] of 1.2 µM.

With `C[C@@H]1CN(c2cc(=O)n(C)c3ccc(C#N)nc23)CC[C@@H]1Oc1ccc(C(F)(F)F)cc1` (single isomer, unassigned) [Example 187, 5-methyl-8-(cis-3-methyl-4-(4-(trifluoromethyl)phenoxy)piperidin-1-yl)-6-oxo-5,6-dihydro-1,5-naphthyridine-2-carbonitrile (rel)] the EC50 [1, 5] was 1.8 µM and the EC50 [2, 8] was 1.7 µM.

For `CC(C)Oc1ccc(O[C@@H]2CCN(c3cc(=O)n(C)c4ccc(C#N)nc34)C[C@H]2C)nc1` (single isomer, unassigned) [Example 200], the EC50 [1, 5] was 3.3 µM and the EC50 [2, 6] was 1.5 µM.

For `CC(C)Oc1ccc(O[C@@H]2CCN(c3cc(=O)n(C)c4ccc(C#N)nc34)C[C@H]2C)nc1` (single isomer, unassigned) [Example 201], the EC50 [1, 9] was 3.9 µM and the EC50 [2, 8] was 0.92 µM.

`CC(C)c1ccc(O[C@H]2CCN(c3cc(=O)n(C)c4ccc(C#N)nc34)C[C@H]2C)nc1` (single isomer, unassigned) [Example 206] gave an EC50 [1, 9] of 3.6 µM and an EC50 [2, 8] of 0.41 µM.

`CC(C)c1ccc(O[C@H]2CCN(c3cc(=O)n(C)c4ccc(C#N)nc34)C[C@H]2C)nc1` (single isomer, unassigned) [Example 207] was tested, and the EC50 [1, 9] was 12 µM and the EC50 [2, 8] was 1.3 µM.

`C[C@@H]1CN(c2cc(=O)n(C)c3ccc(C#N)nc23)CC[C@@H]1Oc1ccc(C(F)F)cn1` (single isomer, unassigned) [Example 209] showed an EC50 [1, 5] of 18 µM and an EC50 [2, 6] of 1.8 µM.

In the case of `C[C@@H]1CN(c2cc(=O)n(C)c3ccc(C#N)nc23)CC[C@@H]1Oc1ccc(C(F)F)cn1` (single isomer, unassigned) [Example 210], the EC50 [1, 9] is reported as 13 µM and the EC50 [2, 8] is reported as 1.2 µM.

`CC(C)c1cccc(O[C@H]2CCN(c3cc(=O)n(C)c4ccc(C#N)nc34)C[C@H]2C)n1` (single isomer, unassigned) [Example 216] showed an EC50 [1, 5] of 14 µM and an EC50 [2, 8] of 1.4 µM.

Work on `Cn1c(=O)cc(N2CCC(Oc3ccc(C(C)(C)C)cc3)CC2)c2cc(C#N)ccc21` [Example 53, 4-(4-(4-(tert-butyl)phenoxy)piperidin-1-yl)-1-methyl-2-oxo-1,2-dihydroquinoline-6-carbonitrile] yielded an IC50 [1, 3] of 2.8 µM and an EC50 [2, 4] of 1.8 µM.

`CCO[C@H]1CN(c2cc(=O)n(C)c3ccc(C#N)nc23)CC[C@@H]1Oc1ccc(Cl)c(F)c1` [Example 358, 8-((3S,4S)-4-(4-chloro-3-fluorophenoxy)-3-ethoxypiperidin-1-yl)-5-methyl-6-oxo-5,6-dihydro-1,5-naphthyridine-2-carbonitrile] was tested, and the EC50 [1, 10] was 7 µM.

With `CCO[C@H]1CN(c2cc(=O)n(C)c3ccc(C#N)nc23)CC[C@@H]1Oc1ccnc(C(F)(F)F)c1` [Example 359, 8-((3S,4S)-3-ethoxy-4-((2-(trifluoromethyl)pyridin-4-yl)oxy)piperidin-1-yl)-5-methyl-6-oxo-5,6-dihydro-1,5-naphthyridine-2-carbonitrile] the EC50 [1, 10] was 20 µM.

`CCO[C@H]1CN(c2cc(=O)n(C)c3ccc(C#N)nc23)CC[C@@H]1Oc1ccnc(C(F)(F)F)c1` [Example 360, 8-((3S,4S)-3-ethoxy-4-((2-(trifluoromethyl)pyridin-4-yl)oxy)piperidin-1-yl)-5-methyl-6-oxo-5,6-dihydro-1,5-naphthyridine-2-carbonitrile] showed an EC50 [1, 10] of 0.7 µM.

Molecule `CCO[C@H]1CN(c2cc(=O)n(C)c3ccc(C#N)nc23)CC[C@@H]1Oc1cc(C(F)(F)F)ccn1` [Example 365, 8-((3S,4S)-3-ethoxy-4-((4-(trifluoromethyl)pyridin-2-yl)oxy)piperidin-1-yl)-5-methyl-6-oxo-5,6-dihydro-1,5-naphthyridine-2-carbonitrile] has an EC50 [1, 9] of 0.6 µM.

Molecule `CCO[C@H]1CN(c2cc(=O)n(C)c3ccc(C#N)nc23)CC[C@@H]1Oc1cc(C(F)(F)F)ccn1` [Example 366, 8-((3S,4S)-3-ethoxy-4-((4-(trifluoromethyl)pyridin-2-yl)oxy)piperidin-1-yl)-5-methyl-6-oxo-5,6-dihydro-1,5-naphthyridine-2-carbonitrile] has an EC50 [1, 9] of 20 µM.

`CCO[C@H]1CN(c2cc(=O)n(C)c3ccc(C#N)nc23)CC[C@@H]1Oc1nc2ccccc2s1` [Example 373] gave an EC50 [1, 9] of 1.6 µM.

In the case of `CCO[C@H]1CN(c2cc(=O)n(C)c3ccc(C#N)nc23)CC[C@@H]1Oc1nc2ccccc2s1` [Example 374], the EC50 [1, 9] is reported as 20 µM.

Molecule `CCO[C@H]1CN(c2cc(=O)n(C)c3ccc(C#N)nc23)CC[C@@H]1Oc1ccc(OC(C)C)nn1` [Example 375, 8-((3S,4S)-3-ethoxy-4-((6-isopropoxypyridazin-3-yl)oxy)piperidin-1-yl)-5-methyl-6-oxo-5,6-dihydro-1,5-naphthyridine-2-carbonitrile] has an EC50 ([1]; Homo sapiens, CD8 positive, read-out: DGK HWB, human whole blood pERK) of 2.3 µM.

In the case of `Cn1c(=O)cc(N2CC[C@@H](Oc3cccc(C(F)(F)F)c3)[C@H](OCC3CC3)C2)c2nc(C#N)ccc21` [Example 388, 8-((3R,4R)-3-(cyclopropylmethoxy)-4-(3-(trifluoromethyl)phenoxy)piperidin-1-yl)-5-methyl-6-oxo-5,6-dihydro-1,5-naphthyridine-2-carbonitrile], the EC50 ([1]; human whole blood, CD8 positive population, anti-CD3 stimulation, top concentration 20 μM, read-out: DGK HWB (human whole blood pERK)) is reported as 20 µM.

For `Cn1c(=O)cc(N2CC[C@@H](Oc3cccc(C(F)(F)F)c3)[C@H](OCCN3CCOCC3)C2)c2nc(C#N)ccc21` [Example 391, 5-methyl-8-((3R,4R)-3-(2-morpholinoethoxy)-4-(3-(trifluoromethyl)phenoxy)piperidin-1-yl)-6-oxo-5,6-dihydro-1,5-naphthyridine-2-carbonitrile], the EC50 ([1]; Homo sapiens, CD8 positive, read-out: DGK HWB (human whole blood pERK), human whole blood, CD8 positive population, anti-CD3 stimulation, top concentration 20 μM) was 17 µM.
